Reference: patent US11242312B2, “Dipeptidyl ketoamide meta-methoxyphenyl derivatives and uses thereof” (LANDSTEINER GENMED, S.L., priority 2018, dated 2022)

Molecular target: calpain 1 (Homo sapiens (Human), UniProt P07384)
Assay: Assay for the determination of the capacity to inhibit calpain 1 (Calpain-Glo Protease kit)
Format: biochemical
Conditions: Calpain-Glo luminescence; 16 ng/mL calpain 1; at least 6 concentrations; read-out: Calpain 1 inhibitory activity IC50
Description: Assay for the Determination of the Capacity to Inhibit Calpain 1
Activity of Calpain 1 was measured by using Calpain-Glo Protease kit from Promega. Assays were run in 384-well black plates with clear bottom. 5 μl of compounds in a 10 mM HEPES and 1 mM EDTA aqueous solution were incubated with 15 μL of a solution of 16 ng/mL calpain 1 (Sigma Aldrich) for 2 minutes and then 20 μL of Calpain-Glo™ Reagent provided in the kit were added to each well. Luminiscence elicited by calpain 1-induced substrate lysis was measured in a Hamamatsu FDSS 7000 reader and data was calculated from the maximal luminescence peak. Calpain inhibition was calculated from the formula: % inhibition=[…]; wherein LT is the luminescence observed in the tested compound, LB is blank luminescence obtained from a well without calpain 1 and LC is the luminescence observed in control wells including calpain1 in the absence of inhibitor.
All compounds were tested using, at least, 6 concentrations to allow calculate the IC50 (concentration that inhibits the activity of calpain 1 by 50%).
Calpastatin and ALLN were included as control inhibitors in all the assays.

Chain of calpain 1 (P07384 whole entry): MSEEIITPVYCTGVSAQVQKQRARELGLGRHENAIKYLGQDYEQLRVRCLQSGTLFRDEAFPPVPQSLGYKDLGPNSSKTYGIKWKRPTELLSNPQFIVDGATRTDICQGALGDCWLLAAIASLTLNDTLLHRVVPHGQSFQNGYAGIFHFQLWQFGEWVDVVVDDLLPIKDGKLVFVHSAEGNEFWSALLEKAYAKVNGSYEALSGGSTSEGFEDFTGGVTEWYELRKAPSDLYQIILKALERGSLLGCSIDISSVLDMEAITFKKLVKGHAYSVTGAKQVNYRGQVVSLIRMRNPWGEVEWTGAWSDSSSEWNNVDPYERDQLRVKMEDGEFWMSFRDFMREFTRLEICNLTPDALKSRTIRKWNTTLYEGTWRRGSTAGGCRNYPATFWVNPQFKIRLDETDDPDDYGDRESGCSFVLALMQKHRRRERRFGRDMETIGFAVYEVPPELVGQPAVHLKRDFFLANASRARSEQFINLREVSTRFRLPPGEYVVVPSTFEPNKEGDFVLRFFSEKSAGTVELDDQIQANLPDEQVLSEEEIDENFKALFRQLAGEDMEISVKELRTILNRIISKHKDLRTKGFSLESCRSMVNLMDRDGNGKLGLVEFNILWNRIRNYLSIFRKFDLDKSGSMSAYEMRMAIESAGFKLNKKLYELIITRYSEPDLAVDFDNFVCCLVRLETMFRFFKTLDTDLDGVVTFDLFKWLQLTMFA
Chain of calpain 1 (P04632 whole entry partner): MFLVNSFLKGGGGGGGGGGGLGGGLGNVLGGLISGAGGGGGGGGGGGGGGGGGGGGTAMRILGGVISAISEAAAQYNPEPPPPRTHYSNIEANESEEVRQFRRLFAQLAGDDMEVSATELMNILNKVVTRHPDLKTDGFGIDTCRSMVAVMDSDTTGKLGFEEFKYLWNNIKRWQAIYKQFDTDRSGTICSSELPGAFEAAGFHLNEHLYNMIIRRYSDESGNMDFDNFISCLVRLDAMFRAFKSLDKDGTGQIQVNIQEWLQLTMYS

Row | Compound | IC50 [nM]
1 | COc1ccc(C(=O)N[C@@H](CC(C)C)C(=O)N[C@@H](Cc2ccccc2)C(=O)C(=O)NC2CC2)cc1 [Comp. Example 5, N-((S)-1-(((S)-4-(cyclopropylamino)-3,4-dioxo-1-phenylbutan-2-yl)amino)-4-methyl-1-oxopentan-2-yl)-4-methoxybenzamide, reference compound] | 255
2 | COc1ccccc1C(=O)N[C@@H](CC(C)C)C(=O)N[C@@H](Cc1ccccc1)C(=O)C(=O)NC1CC1 [Comp. Example 6, N-((S)-1-(((S)-4-(cyclopropylamino)-3,4-dioxo-1-phenylbutan-2-yl)amino)-4-methyl-1-oxopentan-2-yl)-2-methoxybenzamide, reference compound] | 110
3 | COc1cccc(C(=O)N[C@@H](CC(C)C)C(=O)N[C@@H](Cc2ccccc2)C(=O)C(=O)NC2CC2)c1 [Example 1, N-((S)-1-(((S)-4-(cyclopropylamino)-3,4-dioxo-1-phenylbutan-2-yl)amino)-4-methyl-1-oxopentan-2-yl)-3-methoxybenzamide] | 0.03
4 | COc1cccc(C(=O)N[C@H](C(=O)NC(Cc2ccccc2)C(=O)C(=O)NC2CC2)C(C)C)c1 (stereo partly drawn) [Example 2, N-((S)-1-((4-(cyclopropylamino)-3,4-dioxo-1-phenylbutan-2-yl)amino)-3-methyl-1-oxobutan-2-yl)-3-methoxybenzamide] | 2.2
5 | COc1cccc(C(=O)N[C@@H](CC2CC2)C(=O)NC(Cc2ccccc2)C(=O)C(=O)NC2CC2)c1 (stereo partly drawn) [Example 3, N-((S)-3-cyclopropyl-1-((4-(cyclopropylamino)-3,4-dioxo-1-phenylbutan-2-yl)amino)-1-oxopropan-2-yl)-3-methoxybenzamide] | 0.008
6 | CONC(=O)C(=O)C(Cc1ccccc1)NC(=O)[C@H](CC1CC1)NC(=O)c1cccc(OC)c1 (stereo partly drawn) [Example 4, N-((S)-3-cyclopropyl-1-((4-(methoxyamino)-3,4-dioxo-1-phenylbutan-2-yl)amino)-1-oxopropan-2-yl)-3-methoxybenzamide] | 7.1
